Experimental data taken from US8940739B2, “Compound of a reverse-turn mimetic and a production method and use therefor” (JW Pharmaceutical Corporation, priority 2010, dated 2015).

test system: MV-4-11 (human, Acute Myeloid Leukemia cell line) cells; test: Cell growth inhibition assay, GI50 of MV-4-11; assay type: cell-based; conditions: Homo sapiens, MV4-11, 72 h, MV-4-11 cells
Protocol: The anti-proliferative activity (cell growth inhibition assay) of the compounds according to the present invention against AML (Acute Myeloid Leukemia) cancer cells was measured. […] The lower the GI50 value, the higher the anti-proliferative activity.
A cell growth Inhibition assay was performed to investigate the rate of inhibition of cell proliferation by the compounds of the present invention. MV-4-11 (human, Acute Myeloid Leukemia cell line) cells were cultured in Iscove's modified Dulbecco's medium (IMDM) including 10% fetal bovine serum (FBS), 1× penicillin/streptomycin (10,000 units/ml Penicillin, […] Streptomycin in 0.85% NaCl). MV-4-11 cells were harvested with the IMDM and 5×10^4 cells/well were transferred to each well of 96-well culture plates (Nunc, #167008).
The compounds of Examples 1 to 5 were exposed to serial dilution and duplicated for each concentration. For the serial dilution, the compounds of the present invention were repeatedly diluted with the same volume of media onto 96-well assay block (costar, #3956). After the dilution, each compound was added to each well.
Also, the background absorbance was measured during the treatment with the test compounds by replacing the test compound with IMDM in the negative control plate. The plates were incubated for three days (72 hours) at 37 in the humidified incubator containing 5% CO2. On the last day, 20 µl of a CellTiter 96 Aqueous One Solution (Promega #G3581) was added to the culture in each well and the plates were incubated for a few hours at 37 in the humidified incubator containing 5% CO2. After the incubation, the absorbance of each cell was measured at 490 nm using an EnVision (Perkinelmer, USA).
The GI50 values were calculated using a Prism 3.0 program.

| Structure (SMILES) | GI50 [nM] |
| --- | --- |
| C=CCN1CC(=O)N2[C@@H](Cc3ccc(O)cc3)C(=O)N(Cc3cccc4c(C(=O)N(C)CCCN5CCN(C)CC5)cn(C)c34)C[C@@H]2N1C(=O)NCc1ccccc1 [Compound F-31] | 1.9 |
| C=CCN1CC(=O)N2[C@@H](Cc3ccc(O)cc3)C(=O)N(Cc3cccc4c(-c5ccc(C(=O)NNCc6ccccc6)cc5)cn(C)c34)C[C@@H]2N1C(=O)NCc1ccccc1 [Compound D-38] | 3.2 |
| C=CCN1CC(=O)N2[C@@H](Cc3ccc(O)cc3)C(=O)N(Cc3cccc4c(C(=O)N5CCN(c6ccc(O)cc6)CC5)cn(C)c34)C[C@@H]2N1C(=O)NCc1ccccc1 [Compound E-40] | 15.4 |
| C=CCN1CC(=O)N2[C@@H](Cc3ccc(O)cc3)C(=O)N(Cc3cccc4c(-c5ccc(C(=O)NNC(C)C)cc5)cn(C)c34)C[C@@H]2N1C(=O)NCc1ccccc1 [Compound D-35] | 15 |
| C=CCN1CC(=O)N2C(CN(Cc3cccc4c(C(=O)Nc5ccc(SC)cc5)cn(C)c34)C(=O)[C@@H]2Cc2ccc(O)cc2)N1C(=O)NCc1ccccc1 (stereo partly drawn) [Compound G-7] | 10.5 |
| C=CCN1CC(=O)N2[C@@H](Cc3ccc(O)cc3)C(=O)N(Cc3cccc4c(C(=O)N5CCN(C6CC6)CC5)cn(C)c34)C[C@@H]2N1C(=O)NCc1ccccc1 [Compound E-17] | 4.5 |
| C=CCN1CC(=O)N2[C@@H](Cc3ccc(O)cc3)C(=O)N(Cc3cccc4c(-c5cccc(C(=O)N6CCC(O)CC6)c5)cn(C)c34)C[C@@H]2N1C(=O)NCc1ccccc1 [Compound D-6] | 1.7 |
| C=CCN1CC(=O)N2[C@@H](Cc3ccc(O)cc3)C(=O)N(Cc3cccc4c(-c5ccc(C(=O)NC6CCN(C(C)C)CC6)o5)cn(C)c34)C[C@@H]2N1C(=O)NCc1ccccc1 [Compound D-104] | 6.3 |
| C=CCN1CC(=O)N2[C@@H](Cc3ccc(O)cc3)C(=O)N(Cc3cccc4c(-c5cccc(C(=O)NC6CCCCC6)c5)cn(C)c34)C[C@@H]2N1C(=O)NCc1ccccc1 [Compound D-9] | 3.3 |
| C=CCN1CC(=O)N2[C@@H](Cc3ccc(O)cc3)C(=O)N(Cc3cccc4c(-c5ccc(NC(=O)NCC)nc5)cn(C)c34)C[C@@H]2N1C(=O)NCc1ccccc1 [Compound D-94] | 1.5 |
| C=CCN1CC(=O)N2[C@@H](Cc3ccc(O)cc3)C(=O)N(Cc3cccc4c(-c5ccc(C(=O)NC6CCC(N)CC6)cc5)cn(C)c34)C[C@@H]2N1C(=O)NCc1ccccc1 (stereo partly drawn) [Compound D-30] | 1.5 |
| C=CCN1CC(=O)N2[C@@H](Cc3ccc(O)cc3)C(=O)N(Cc3cccc4c(-c5ccc(C(=O)N6CCCCC6)cc5)cn(C)c34)C[C@@H]2N1C(=O)NCc1ccccc1 [Compound D-4] | 1.4 |
| C=CCN1CC(=O)N2[C@@H](Cc3ccc(O)cc3)C(=O)N(Cc3cccc4c(-c5ccc(C(C)=O)s5)cn(C)c34)C[C@@H]2N1C(=O)NCc1ccccc1 [Compound H-8] | 5.7 |
| C=CCN1CC(=O)N2[C@@H](Cc3ccc(O)cc3)C(=O)N(Cc3cccc4c(C(=O)Nc5ccc(N(C)Cc6cncn6C)nc5)cn(C)c34)C[C@@H]2N1C(=O)NCc1ccccc1 [Compound G-34] | 1.37 |
| C=CCN1CC(=O)N2[C@@H](Cc3ccc(O)cc3)C(=O)N(Cc3cccc4c(-c5ccc(C(=O)N6CCN(C)CC6)o5)cn(C)c34)C[C@@H]2N1C(=O)NCc1ccccc1 [Compound D-105] | 3.7 |
| C=CCN1CC(=O)N2[C@@H](Cc3ccc(O)cc3)C(=O)N(Cc3cccc4c(C(=O)N5CCN(Cc6ccc(C#N)cc6)CC5)cn(C)c34)C[C@@H]2N1C(=O)NCc1ccccc1 [Compound E-33] | 9 |
| C=CCN1CC(=O)N2[C@@H](Cc3ccc(O)cc3)C(=O)N(Cc3cccc4c(-c5ccc(C(=O)NC)o5)cn(C)c34)C[C@@H]2N1C(=O)NCc1ccccc1 [Compound D-101] | 5.8 |
| C=CCN1CC(=O)N2[C@@H](Cc3ccc(O)cc3)C(=O)N(Cc3cccc4c(C(=O)N5CCN(Cc6ccncc6)CC5)cn(C)c34)C[C@@H]2N1C(=O)NCc1ccccc1 [Compound E-30] | 14.4 |
| C=CCN1CC(=O)N2C(Cc3ccc(O)cc3)C(=O)N(Cc3cccc4c(C(=O)Nc5ccc(N(C)CC(C)C)nc5)cn(C)c34)CC2N1C(=O)NCc1ccccc1 (stereo not drawn) [Compound G-17] | 2 |

Next, values leading:

| GI50 [nM] | Structure (SMILES) |
| --- | --- |
| 1.3 | C=CCN1CC(=O)N2[C@@H](Cc3ccc(O)cc3)C(=O)N(Cc3cccc4c(C(=O)N(C)Cc5ccc(N(C)C)cc5)cn(C)c34)C[C@@H]2N1C(=O)NCc1ccccc1 [Compound F-46] |
| 1.3 | C=CCN1CC(=O)N2[C@@H](Cc3ccc(O)cc3)C(=O)N(Cc3cccc4c(-c5ccc(NC(=O)C6CCN(C)CC6)cc5)cn(C)c34)C[C@@H]2N1C(=O)NCc1ccccc1 [Compound D-62] |
| 1.3 | C=CCN1CC(=O)N2[C@@H](Cc3ccc(O)cc3)C(=O)N(Cc3cccc4c(-c5ccc(C(=O)N(C)OC)cc5)cn(C)c34)C[C@@H]2N1C(=O)NCc1ccccc1 [Compound D-47] |
| 1.3 | C=CCN1CC(=O)N2C(CN(Cc3cccc4c(C(=O)Nc5ccc(N6CCN(C)CC6)cc5)cn(C)c34)C(=O)[C@@H]2Cc2ccc(O)cc2)N1C(=O)NCc1ccccc1 (stereo partly drawn) [Compound G-40] |
| 1.3 | C=CCN1CC(=O)N2[C@@H](Cc3ccc(O)cc3)C(=O)N(Cc3cccc4c(-c5ccc(NC(=O)N6CC(N7CCOCC7)C6)cc5)cn(C)c34)C[C@@H]2N1C(=O)NCc1ccccc1 [Compound D-66] |
| 1.2 | C=CCN1CC(=O)N2[C@@H](Cc3ccc(O)cc3)C(=O)N(Cc3cccc4c(-c5ccc(C(=O)NCCN(C)C)cc5)cn(C)c34)C[C@@H]2N1C(=O)NCc1ccccc1 [Compound D-39] |
| 1.2 | C=CCN1CC(=O)N2[C@@H](Cc3ccc(O)cc3)C(=O)N(Cc3cccc4c(-c5ccc(C(=O)NC)cc5)cn(C)c34)C[C@@H]2N1C(=O)NCc1ccccc1 [Compound D-8] |
| 1.2 | C=CCN1CC(=O)N2[C@@H](Cc3ccc(O)cc3)C(=O)N(Cc3cccc4c(-c5ccc(C(=O)N(C)CCN(C)C)cc5)cn(C)c34)C[C@@H]2N1C(=O)NCc1ccccc1 [Compound D-40] |
| 1.2 | C=CCN1CC(=O)N2[C@@H](Cc3ccc(O)cc3)C(=O)N(Cc3cccc4c(-c5ccc(C(=O)Nc6ccc(N7CCNCC7)cc6)cc5)cn(C)c34)C[C@@H]2N1C(=O)NCc1ccccc1 [Compound D-13] |
| 1.2 | C=CCN1CC(=O)N2C(CN(Cc3cccc4c(C(=O)Nc5ccc(N(C)C)cc5)cn(C)c34)C(=O)[C@@H]2Cc2ccc(O)cc2)N1C(=O)NCc1ccccc1 (stereo partly drawn) [Compound G-14] |
| 1.2 | C=CCN1CC(=O)N2[C@@H](Cc3ccc(O)cc3)C(=O)N(Cc3cccc4c(-c5ccc(NC(=O)c6ccc(CN)cc6)cc5)cn(C)c34)C[C@@H]2N1C(=O)NCc1ccccc1 [Compound D-53] |
| 0.1 | C=CCN1CC(=O)N2[C@@H](Cc3ccc(O)cc3)C(=O)N(Cc3cccc4c(-c5ccc(C(=O)N6CCN(C)CC6)cc5)cn(C)c34)C[C@@H]2N1C(=O)NCc1ccccc1 [Compound D-3] |

same assay, conditions: MV-4-11 cells, 72 hours; read-out: MV4-11 GI50

| GI50 [nM] | Structure (SMILES) |
| --- | --- |
| 18.4 | C=CCN1CC(=O)N2[C@@H](Cc3ccc(O)cc3)C(=O)N(Cc3cccc4c(C(=O)N5CCN(Cc6ccccn6)CC5)cn(C)c34)C[C@@H]2N1C(=O)NCc1ccccc1 [Compound E-29] |
| 5.6 | C=CCN1CC(=O)N2[C@@H](Cc3ccc(O)cc3)C(=O)N(Cc3cccc4c(C(=O)N5CCN(Cc6ccccn6)CC5)cn(C)c34)C[C@@H]2N1C(=O)NCc1ccccc1 [Compound E-28] |
